The source of these data is patent publication US7935720B2, “Crystal of substituted phenylalkanoic acid ester and process for producing the same” (Asahi Kasei Pharma Corporation, priority 2006, dated 2011).

The test system of one data set is leukotriene production. The settings on record: reported in Patent Document 1; cited from earlier work.
Another data set concerns prostaglandin production. The settings on record: reported in Patent Document 1; cited from earlier work.
Data set [1] in a line: Solubility test in Japanese Pharmacopoeia disintegration test fluids (HPLC). Format: physicochemical. The settings on record: for Solubility to 1st fluid for disintegration test of Japanese Pharmacopoeia (pH 1.2) / Solubility to 2nd fluid for disintegration test of Japanese Pharmacopoeia (pH 6.8): shaken for 24 hours at 37° C. The method, then: The type A crystals of compound 1 of the invention prepared according to Example 3, and the type B crystals of compound 1 of the invention prepared according to Example 4 were respectively weighed to 10 mg in a 10-mL centrifuge tube, 3 mL each of 1st fluid for disintegration test of Japanese Pharmacopoeia (pH 1.2) was added respectively, and the mixture solutions were shaken for 24 hours at 37° C. After the shaking, the solutions were filtered, 1 mL of each filtrate was exactly pipeted, and 1 mL of acetonitrile was exactly added to obtain a sample solution.
The sample solutions were analyzed by using HPLC technique with the following conditions and the concentration of the compound in the sample solution was determined by comparing it with that of a standard solution having an already known concentration under the following HPLC conditions, to determine the solubility.
The same test was performed with 2nd fluid for disintegration test of Japanese Pharmacopoeia (pH 6.8), to determine the solubility.
Detector: Ultraviolet absorption spectrometer (wavelength: 235 nm)
Mobile phase: 50 mmol/L sodium dihydrogen phosphate/acetonitrile (55:45)
Column: YMC-Pack Pro C18, internal diameter: 4.6 mm, length: 15 cm (YMC Corporation)
Column temperature: 40° C.

Data set [2] concerns footpad edema in rat adjuvant arthritis. Briefly: Prophylactic and therapeutic effect against rat adjuvant arthritis. In kind it is in vivo. As to conditions: oral, 0.1 to 50 mg/0.2 ml/kg, suspended in 0.5% methylcellulose; compared with the positive control group. The method, then: For the compounds of the invention, a suppressive effect against footpad edema in rat adjuvant arthritis, which is a disease model for chronic rheumatoid arthritis as being one of autoimmune diseases and also a chronic inflammatory disease, was investigated according to the method of International Patent Publication No. WO 03/70686. The test compound was suspended in purified water containing 0.5% methylcellulose, and was orally administered to test animals at a dose of 0.1 to 50 mg/0.2 ml/kg.

A short description of data set [3]: Measurement of water content after filtration. Format: physicochemical. As to conditions: wet crystals after filtration and dehydration; calculated from weight of wet crystals and weight after drying. How it is done: The respective water contents of the crystals obtained in Example 10 and Example 11 were calculated from the weight of the wet crystals and the weight of the crystals after drying.

Molecules are shown by their SMILES.

On to `Cn1ncc2cc(-c3cc(CCC(=O)O)cc(N)c3OC3Cc4ccccc4C3)ccc21` [Compound 1, 3-[3-amino-4-(indan-2-yloxy)-5-(1-methyl-1H-indazol-5-yl)phenyl]propionic acid], for which the “Leukotriene production suppressing effect” value in the data set with leukotriene production was “leukotriene production suppressing effect”. Moreover, in the data set on prostaglandin production, the “Prostaglandin production suppressing effect” value was “prostaglandin production suppressing effect”.

As to `Cn1ncc2cc(-c3cc(CCC(=O)O)cc(N)c3OC3Cc4ccccc4C3)ccc21` [Type A crystal, 3-[3-amino-4-(indan-2-yloxy)-5-(1-methyl-1H-indazol-5-yl)phenyl]propionic acid], in data set [1] (1st fluid (pH 1.2) and 2nd fluid (pH 6.8)), the “Solubility of type A crystal relative to type B crystal” value was “three-fold greater”. In addition, in data set [1], the “Solubility to 1st fluid for disintegration test of Japanese Pharmacopoeia (pH 1.2)” value amounted to 0.03 mg/mL and the “Solubility to 2nd fluid for disintegration test of Japanese Pharmacopoeia (pH 6.8)” value came out at 0.06 mg/mL. The “Suppression of footpad edema in rat adjuvant arthritis” value in data set [2] is reported as “suppressed footpad edema”. Also, the Water content in data set [3] is 52.5%.

On to `Cn1ncc2cc(-c3cc(CCC(=O)O)cc(N)c3OC3Cc4ccccc4C3)ccc21` [Type B crystal, 3-[3-amino-4-(indan-2-yloxy)-5-(1-methyl-1H-indazol-5-yl)phenyl]propionic acid], for which, in data set [1], the “Solubility to 1st fluid for disintegration test of Japanese Pharmacopoeia (pH 1.2)” value is recorded as 0.01 mg/mL and the “Solubility to 2nd fluid for disintegration test of Japanese Pharmacopoeia (pH 6.8)” value is listed as 0.02 mg/mL. For the same compound, the “Suppression of footpad edema in rat adjuvant arthritis” value in data set [2] is recorded as “suppressed footpad edema”. Besides, the Water content in data set [3] is listed as 39.3%.
